According to patent publication US11203591B2, “Substituted 6-azabenzimidazole compounds” (Gilead Sciences, Inc., priority 2018, dated 2021):

Molecular target: human HPK1 (MAP4K1) (Homo sapiens (Human), UniProt Q92918)
Test: HPK1 IC50 Assay (TR-FRET peptide phosphorylation)
Type: biochemical
Summary of the method: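 Readout: TR-FRET (665 nm/620 nm) after EDTA stop, detecting STK S1 peptide (1 μM) phosphorylation by 0.15 nM HPK1 kinase domain, ATP-pre-activated, at 10 μM ATP over 3 h, 25° C, pH 7.0. IC50s from four-parameter variable-slope fits, normalized to staurosporine and DMSO, averaged geometrically.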

[1] = recombinant HPK1 kinase domain 0.15 nM, 10 μM ATP, 1 μM STK S1 peptide, geometric mean of multiple experiments

Chain of human HPK1 (MAP4K1) (Q92918 17-274): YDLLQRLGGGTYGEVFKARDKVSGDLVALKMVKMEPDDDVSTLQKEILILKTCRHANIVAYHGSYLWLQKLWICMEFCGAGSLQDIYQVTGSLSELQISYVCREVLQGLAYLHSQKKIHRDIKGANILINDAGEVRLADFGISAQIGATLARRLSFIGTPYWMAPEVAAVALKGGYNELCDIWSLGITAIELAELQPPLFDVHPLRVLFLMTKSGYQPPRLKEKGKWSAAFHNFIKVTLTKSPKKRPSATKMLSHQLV

| Structure (SMILES) | IC50 [1] | IC50 (0.15 nM HPK1, 10 μM ATP, 1 μM STK S1 peptide substrate, geometric mean) |
| --- | --- | --- |
| Cc1ccc(Nc2nc(-c3ccc4c(c3)N([C@H]3C[C@@H](N5CC(C)(C)C5)C3)C(=O)C4(C)C)cc3ncn(C(C)C)c23)cc1C(=O)NC1CC1 [Example 121] | 0.1 nM |  |
| CC(C)n1cnc2cc(-c3cnc4c(c3)N([C@H]3C[C@@](C)(N5CCCCCC5)C3)C(=O)C4(C)C)nc(Nc3cc(C(=O)NC4(C(F)F)CC4)c(Cl)c(F)c3F)c21 [Example 226, 5-((6-(1-((1s,3s)-3-(Azepan-1-yl)-3-methylcyclobutyl)-3,3-dimethyl-2-oxo-2,3-dihydro-1H-pyrrolo[3,2-b]pyridin-6-yl)-3-isopropyl-3H-imidazo[4,5-c]pyridin-4-yl)amino)-2-chloro-N-(1-(difluoromethyl)cyclopropyl)-3,4-difluorobenzamide] | 0.1 nM |  |
| CCNC(=O)c1cc(Nc2nc(-c3cnc4c(c3)N([C@H]3C[C@@](C)(N5CCCCCC5)C3)C(=O)C4(C)C)cc3ncn(C(C)C)c23)c(F)c(F)c1Cl [Example 247, 5-((6-(1-((1s,3s)-3-(azepan-1-yl)-3-methylcyclobutyl)-3,3-dimethyl-2-oxo-2,3-dihydro-1H-pyrrolo[3,2-b]pyridin-6-yl)-3-isopropyl-3H-imidazo[4,5-c]pyridin-4-yl)amino)-2-chloro-N-ethyl-3,4-difluorobenzamide] | 0.05 nM |  |
| Cc1c(F)c(Nc2nc(-c3cnc4c(c3)N([C@H]3C[C@@](C)(N5CCCCC5)C3)C(=O)C4(C)C)cc3ncn(C(C)C)c23)cc(C(=O)NC2(C(F)F)CC2)c1Cl [Example 264, 2-chloro-N-(1-(difluoromethyl)cyclopropyl)-5-((6-(3,3-dimethyl-1-((1s,3s)-3-methyl-3-(piperidin-1-yl)cyclobutyl)-2-oxo-2,3-dihydro-1H-pyrrolo[3,2-b]pyridin-6-yl)-3-isopropyl-3H-imidazo[4,5-c]pyridin-4-yl)amino)-4-fluoro-3-methylbenzamide] | 0.2 nM |  |
| CNC(=O)c1cc(Nc2nc(-c3ccc4c(c3)N([C@H]3C[C@@H](NC(C)C)C3)C(=O)C4(C)C)cc3ncn(C(C)C)c23)ccc1C [Example 11] | 0.1 nM |  |
| CCn1cnc2cc(-c3ccc4c(c3)N([C@H]3C[C@@H](NC(=O)C(C)(C)C)C3)C(=O)C4(C)C)nc(Nc3ccc(C)c(C(N)=O)c3)c21 [Example 133] | 0.9 nM |  |
| CNC(=O)c1cc(Oc2nc(-c3ccc4c(c3)N([C@H]3C[C@@H](N5CCCCC5)C3)C(=O)C4(C)C)cc3ncn(C4CC4)c23)ccc1C [Example 34] | 0.6 nM |  |
| CNC(=O)c1cc(Nc2nc(-c3ccc4c(c3)N([C@H]3C[C@@H](N5CCCC6(C5)CC6(F)F)C3)C(=O)C43CCN(C(C)=O)CC3)cc3ncn(C4CC4)c23)ccc1C (stereo partly shown) [Example 163] | 0.1 nM |  |
| CCNC(=O)c1ccc(F)c(Nc2nc(-c3ccc4c(c3)N([C@H]3C[C@@](C)(N5CCCCC5)C3)C(=O)C4(C)C)cc3ncn(C(C)C)c23)c1 [Example 240, 3-((6-(3,3-Dimethyl-1-((1s,3s)-3-methyl-3-(piperidin-1-yl)cyclobutyl)-2-oxoindolin-6-yl)-3-isopropyl-3H-imidazo[4,5-c]pyridin-4-yl)amino)-N-ethyl-4-fluorobenzamide] | 0.09 nM |  |
| CNC(=O)c1cc(Nc2nc(-c3ccc4c(c3)N([C@H]3C[C@@H](N[C@@H]5CCOC[C@@H]5C)C3)C(=O)C4(C)C)cc3ncn(C(C)C)c23)ccc1C [Example 12] | 0.09 nM |  |
| CC(C)n1cnc2cc(-c3cnc4c(c3)N([C@H]3C[C@@](C)(N5CCCCCC5)C3)C(=O)C4(C)C)nc(Nc3cc(C(=O)NCC(F)F)c(Cl)c(F)c3F)c21 [Example 248, 5-((6-(1-((1s,3s)-3-(azepan-1-yl)-3-methylcyclobutyl)-3,3-dimethyl-2-oxo-2,3-dihydro-1H-pyrrolo[3,2-b]pyridin-6-yl)-3-isopropyl-3H-imidazo[4,5-c]pyridin-4-yl)amino)-2-chloro-N-(2,2-difluoroethyl)-3,4-difluorobenzamide] | 0.05 nM |  |
| Cc1cc(F)c(Nc2nc(-c3cnc4c(c3)N([C@H]3C[C@@](C)(N5C6CCC5COC6)C3)C(=O)C4(C)C)cc3ncn(C(C)C)c23)cc1C(=O)NC1(C(F)F)CC1 [Example 212, 5-((6-(1-((1s,3s)-3-(3-Oxa-8-azabicyclo[3.2.1]octan-8-yl)-3-methylcyclobutyl)-3,3-dimethyl-2-oxo-2,3-dihydro-1H-pyrrolo[3,2-b]pyridin-6-yl)-3-isopropyl-3H-imidazo[4,5-c]pyridin-4-yl)amino)-N-(1-(difluoromethyl)cyclopropyl)-4-fluoro-2-methylbenzamide] | 0.3 nM |  |
| CCNC(=O)c1cc(Nc2nc(-c3cnc4c(c3)N([C@H]3C[C@@](C)(N5CCCCC5)C3)C(=O)C4(C)C)cc3ncn(C(C)C)c23)c(F)c(F)c1C [Example 222, 5-((6-(3,3-Dimethyl-1-((1s,3s)-3-methyl-3-(piperidin-1-yl)cyclobutyl)-2-oxo-2,3-dihydro-1H-pyrrolo[3,2-b]pyridin-6-yl)-3-isopropyl-3H-imidazo[4,5-c]pyridin-4-yl)amino)-N-ethyl-3,4-difluoro-2-methylbenzamide] | 0.06 nM |  |
| Cc1c(C(=O)NC2(C(F)F)CC2)cc(Nc2nc(-c3cnc4c(c3)N(C3CC(C)(N5CCC6C[C@@H]6C5)C3)C(=O)C4(C)C)cc3ncn(C(C)C)c23)c(F)c1F (stereo partly shown) [Example 233, 5-((6-(1-((1s,3s)-3-(3-azabicyclo[4.1.0]heptan-3-yl)-3-methylcyclobutyl)-3,3-dimethyl-2-oxo-2,3-dihydro-1H-pyrrolo[3,2-b]pyridin-6-yl)-3-isopropyl-3H-imidazo[4,5-c]pyridin-4-yl)amino)-N-(1-(difluoromethyl)cyclopropyl)-3,4-difluoro-2-methylbenzamide] | 0.08 nM |  |
| Cc1c(C(=O)NC2CC2)cc(Nc2nc(-c3cnc4c(c3)N([C@H]3C[C@@](C)(N5CCCCC5)C3)C(=O)C4(C)C)cc3ncn(C(C)C)c23)c(F)c1F [Example 221, N-Cyclopropyl-5-((6-(3,3-dimethyl-1-((1s,3s)-3-methyl-3-(piperidin-1-yl)cyclobutyl)-2-oxo-2,3-dihydro-1H-pyrrolo[3,2-b]pyridin-6-yl)-3-isopropyl-3H-imidazo[4,5-c]pyridin-4-yl)amino)-3,4-difluoro-2-methylbenzamide] | 0.07 nM |  |
| Cc1ccc(Nc2nc(-c3ccc4c(c3)N([C@H]3C[C@@H](N5CCCCC5)C3)C(=O)C4(C)C)cc3ncn(C4CC4)c23)cc1C(N)=O [Example 112] | 0.09 nM |  |
| CC(C)n1cnc2cc(-c3ccc4c(c3)N([C@H]3C[C@@](C)(N5CCCCC5)C3)C(=O)C4(C)C)nc(Nc3cc(C(=O)NC4(C(F)F)CC4)c(Cl)cc3F)c21 [Example 294, 2-chloro-N-(1-(difluoromethyl)cyclopropyl)-5-((6-(3,3-dimethyl-1-((1s,3s)-3-methyl-3-(piperidin-1-yl)cyclobutyl)-2-oxoindolin-6-yl)-3-isopropyl-3H-imidazo[4,5-c]pyridin-4-yl)amino)-4-fluorobenzamide] |  | 0.08 nM |
| CC(C)n1cnc2cc(-c3cnc4c(c3)N([C@H]3C[C@@](C)(N5CC[C@@H](F)C5)C3)C(=O)C4(C)C)nc(Nc3cc(C(=O)NC4(C(F)F)CC4)c(Cl)c(F)c3F)c21 [Example 200, 2-Chloro-N-(1-(difluoromethyl)cyclopropyl)-3,4-difluoro-5-((6-(1-((1S,3s)-3-((R)-3-fluoropyrrolidin-1-yl)-3-methylcyclobutyl)-3,3-dimethyl-2-oxo-2,3-dihydro-1H-pyrrolo[3,2-b]pyridin-6-yl)-3-isopropyl-3H-imidazo[4,5-c]pyridin-4-yl)amino)benzamide] | 0.1 nM |  |

Further lines, results first:

| IC50 [1] | IC50 (0.15 nM HPK1, 10 μM ATP, 1 μM STK S1 peptide substrate, geometric mean) | Structure (SMILES) |
| --- | --- | --- |
| 0.1 nM |  | CNC(=O)c1cc(Nc2nc(-c3ccc4c(c3)N([C@H]3C[C@@H](N5CCC(C)(C)C5)C3)C(=O)C43CCN(C(C)=O)CC3)cc3ncn(C(C)C)c23)ccc1C [Example 165] |
| 0.2 nM |  | CNC(=O)c1cc(Nc2nc(-c3ccc4c(c3)N([C@H]3C[C@@H](N5CCCCC5)C3)C(=O)C43CCN(C(=O)C4(C)CC4)CC3)cc3ncn(C(C)C)c23)ccc1C [Example 152, 5-((3-isopropyl-6-(1′-(1-methylcyclopropane-1-carbonyl)-2-oxo-1-((1s,3s)-3-(piperidin-1-yl)cyclobutyl)spiro[indoline-3,4′-piperidin]-6-yl)-3H-imidazo[4,5-c]pyridin-4-yl)amino)-N,2-dimethylbenzamide] |
| 0.2 nM |  | CC[C@H](C)NC(=O)c1cc(Nc2nc(-c3ccc4c(c3)N([C@H]3C[C@@H](N5CCCCC5)C3)C(=O)C43CCN(C(C)=O)CC3)cc3ncn(C(C)C)c23)c(F)cc1C [Example 88] |
| 0.07 nM |  | Cc1ccc(Nc2nc(-c3ccc4c(c3)N([C@H]3C[C@@H](N5CCCCC5)C3)C(=O)C4(C)C)cc3ncn(C(C)C)c23)cc1C(=O)N[C@@H](C)C(F)F [Example 21A, N-(1,1-difluoropropan-2-yl)-5-((6-(3,3-dimethyl-2-oxo-1-((1s,3s)-3-(piperidin-1-yl)cyclobutyl)indolin-6-yl)-3-isopropyl-3H-imidazo[4,5-c]pyridin-4-yl)amino)-2-methylbenzamide] |
| 0.3 nM |  | CC[C@@H](C)NC(=O)c1cc(Nc2nc(-c3ccc4c(c3)N([C@H]3C[C@@H](N5CCCCC5)C3)C(=O)C43CCN(C(C)=O)CC3)cc3ncn(C(C)C)c23)c(F)cc1C [Example 87] |
| 0.08 nM |  | Cc1ccc(Nc2nc(-c3ccc4c(c3)N([C@H]3C[C@@H](N5CCCCC5)C3)C(=O)C4(C)C)cc3ncn(C(C)C)c23)cc1C(=O)NC(CF)CF [Example 31] |
| 0.1 nM |  | CNC(=O)c1cc(Nc2nc(-c3ccc4c(c3)N([C@H]3C[C@@H](N5CCCCC5)C3)C(=O)C43CCN(C(C)=O)CC3)cc3ncn(C4CC4)c23)ccc1C [Example 58a] |
| 0.2 nM |  | CNC(=O)c1cc(Nc2nc(-c3ccc4c(c3)N([C@H]3C[C@@H](N5CCCCC5)C3)C(=O)C4(C)C)cc3ncn(C(C)C)c23)ccc1C1CC1 [Example 142] |
| 0.4 nM |  | CNC(=O)c1cc(Nc2nc(-c3ccc4c(c3)N([C@H]3C[C@@H](N5CCCCC5)C3)C(=O)C43CN(C(C)=O)C3)cc3ncn(C(C)C)c23)c(F)cc1C [Example 177] |
| 0.1 nM |  | CNC(=O)c1cc(Nc2nc(-c3ccc4c(c3)N([C@H]3C[C@@H](N5CC[C@@H](F)C5)C3)C(=O)C4(C)C)cc3ncn(C(C)C)c23)c(F)cc1C [Example 108] |
